Patent publication US5300629A, “Bactericidal and/or bacteriostatic peptides isolated from hemolymph of honeybees” (Plant Genetic Systems, N.V., priority 1987, dated 1994)
Where a SMILES comes first, the peptide text is derived from it.

Columns and labels:
Type in all cases: cell-based
[1] = tested on: Haemophilus influenzae NCTC 8465; assay: Inhibition zone assay; parameters: key: --: "-" means that no inhibition has been found; conditions: I 10 ul
[2] = tested on: Xanthomonas maltophilia JCM1977; assay: Inhibition zone assay; parameters: key: --: "-" means that no inhibition has been found; conditions: Xanthomonas maltophilia JCM1977 (Tables 2 and 3)
[3] = tested on: Serratia plymuthica ATCC 183; assay: Inhibition zone assay; parameters: key: --: "-" means that no inhibition has been found; conditions: I and B 10 ul, L 5 ug
[4] = tested on: Clostridium perfringens NCTC 6785; parameters: key: --: "-" means that no inhibition has been found; conditions: I 10 ul
[5] = tested on: Corynebacterium diphteriae HB 11 t1; assay: Inhibition zone assay; parameters: key: --: "-" means that no inhibition has been found; conditions: I 10 ul
[6] = tested on: Bacillus subtilis NRRL B-237; assay: Inhibition zone assay; conditions: I and B 10 ul, L 5 ug
[7] = tested on: Salmonella Montevideo 80/141; assay: Inhibition zone assay; parameters: key: --: "-" means that no inhibition has been found; conditions: I and B 10 ul
[8] = tested on: Rhizobium leguminosarum 720; assay: Inhibition zone assay; parameters: key: --: "-" means that no inhibition has been found
[9] = tested on: Agrobacterium tumefaciens ATCC 143; assay: Inhibition zone assay; parameters: key: --: "-" means that no inhibition has been found
[10] = tested on: Agrobacterium radiobacter ATCC 19358; assay: Inhibition zone assay; parameters: key: --: "-" means that no inhibition has been found; conditions: I and B 10 ul, L 5 ug
[11] = tested on: Serratia fonticola ATCC 298449; assay: Inhibition zone assay; conditions: I and B 10 ul, L 5 ug
[12] = tested on: Pseudomonas aureofaciens CCEB 518; assay: Inhibition zone assay; parameters: key: --: "-" means that no inhibition has been found; conditions: I and B 10 ul, L 5 ug
[13] = tested on: Pseudomonas paucimobilis ATCC 29837; assay: Inhibition zone assay; conditions: L 5 ug
[14] = tested on: Escherichia coli NCTC 11601; assay: Inhibition zone assay; parameters: key: --: "-" means that no inhibition has been found; conditions: I 10 ul
[15] = tested on: Citrobacter freundii ATCC 8090; assay: Inhibition zone assay; parameters: key: --: "-" means that no inhibition has been found
[16] = tested on: Enterobacter agglomerans Gilardi 1081; assay: Inhibition zone assay; parameters: key: --: "-" means that no inhibition has been found; conditions: I and B 10 ul, L 5 ug
[17] = tested on: Streptococcus B CDC 55 460; assay: Inhibition zone assay; parameters: key: --: "-" means that no inhibition has been found; conditions: I 10 ul
[18] = tested on: Bacillus megaterium QMB 1551; assay: Inhibition zone assay; parameters: key: --: "-" means that no inhibition has been found; conditions: I and B 10 ul, L 5 ug
[19] = tested on: Pseudomonas cepacia ATCC 25416; assay: Inhibition zone assay; parameters: key: --: "-" means that no inhibition has been found; conditions: I and B 10 ul, L 5 ug
[20] = tested on: Alcalienes denitrificans ATCC 15173; assay: Inhibition zone assay; parameters: key: --: "-" means that no inhibition has been found
[21] = tested on: Flavobacterium capsulatum ATCC 14666; assay: Inhibition zone assay; parameters: key: --: "-" means that no inhibition has been found
[22] = tested on: Erwinia salicis NCPPB 2530; assay: Inhibition zone assay; parameters: key: --: "-" means that no inhibition has been found; conditions: I and B 10 ul, L 5 ug
[23] = tested on: Lactobacillus acidophilus ATCC 4336; assay: Inhibition zone assay; parameters: key: --: "-" means that no inhibition has been found; conditions: I 10 ul
[24] = tested on: Janthinobacterium lividum Sneath HB; assay: Inhibition zone assay; parameters: key: --: "-" means that no inhibition has been found; conditions: I and B 10 ul, L 5 ug
[25] = tested on: Bacillus cereus LMG 2098; assay: Inhibition zone assay; parameters: key: --: "-" means that no inhibition has been found
[26] = tested on: Azospirillum lipoferum ATCC 29707; assay: Inhibition zone assay; parameters: key: --: "-" means that no inhibition has been found; conditions: I and B 10 ul, L 5 ug
[27] = tested on: Micrococcus lysodeikticus LMG 4050; assay: Inhibition zone assay; parameters: key: --: "-" means that no inhibition has been found; conditions: I and B 10 ul, L 5 ug
[28] = tested on: Listeria monocytogenes B5; assay: Inhibition zone assay; parameters: key: --: "-" means that no inhibition has been found; conditions: L 5 ug
[29] = tested on: Klebsiella oxytoca KO2; assay: Inhibition zone assay; parameters: key: --: "-" means that no inhibition has been found
[30] = tested on: Salmonella infantis 81/257; assay: Inhibition zone assay; parameters: key: --: "-" means that no inhibition has been found; conditions: I and B 10 ul
[31] = tested on: Enterobacter cloacae LMG 2783; assay: Inhibition zone assay; parameters: key: --: "-" means that no inhibition has been found; conditions: I and B 10 ul
[32] = tested on: Xanthomonas campestris pv. graminis NCPPB 2700; assay: Inhibition zone assay; parameters: key: --: "-" means that no inhibition has been found; conditions: I and B 10 ul, L 5 ug
[33] = tested on: Pseudomonas fluorescens ATCC 13525; assay: Inhibition zone assay; parameters: key: --: "-" means that no inhibition has been found
[34] = tested on: Enterobacter agglomerans ICPB 3423; assay: Inhibition zone assay; parameters: key: --: "-" means that no inhibition has been found
[35] = tested on: Rhizobium meliloti ZB 314; assay: Inhibition zone assay; conditions: I and B 10 ul, L 5 ug
[36] = tested on: Streptococcus pyogenes NCTC 8193; assay: Inhibition zone assay; parameters: key: --: "-" means that no inhibition has been found; conditions: I 10 ul
[37] = tested on: Erwinia carotovora var. carotovora NCPPB 312; assay: Inhibition zone assay; parameters: key: --: "-" means that no inhibition has been found

SMILES: CC[C@H](C)[C@H](NC(=O)[C@H](CCCCN)NC(=O)[C@@H]1CCCN1C(=O)[C@H](CC(N)=O)NC(=O)[C@H](Cc1ccccc1)NC(=O)[C@@H]1CCCN1C(=O)CNC(=O)[C@H](CCC(N)=O)NC(=O)CNC(=O)[C@@H]1CCCN1C(=O)[C@H](Cc1ccccc1)NC(=O)[C@@H](NC(=O)[C@@H]1CCCN1C(=O)[C@H](Cc1ccccc1)NC(=O)[C@@H]1CCCN1C(=O)[C@H](CCCNC(=N)N)NC(=O)[C@H](CCCNC(=N)N)NC(=O)CNC(=O)[C@@H]1CCCN1C(=O)[C@H](CCC(N)=O)NC(=O)[C@@H]1CCCN1C(=O)[C@@H](NC(=O)[C@H](CC(N)=O)NC(=O)[C@@H]1CCCN1C(=O)[C@H](CC(C)C)NC(=O)[C@@H]1CCCN1C(=O)[C@@H](NC(=O)[C@@H](N)Cc1ccc(O)cc1)C(C)C)C(C)C)[C@@H](C)O)C(=O)N[C@@H](CCCCN)C(=O)N[C@@H](Cc1c[nH]c2ccccc12)C(=O)N1CCC[C@H]1C(=O)N[C@@H](CCC(N)=O)C(=O)NCC(=O)N[C@@H](Cc1ccc(O)cc1)C(=O)O [bee 9] (H-YVPLPNVPQPGRRPFPTFPGQGPFNPKIKWPQGY-OH)
- diameter of growth-inhibition zone [1]: --
- diameter of growth-inhibition zone [2]: --
- diameter of growth-inhibition zone [3]: --
- diameter of growth-inhibition zone [4]: --
- diameter of growth-inhibition zone [5]: --
- diameter of growth-inhibition zone [6]: 4 mm
- diameter of growth-inhibition zone [7]: --
- diameter of growth-inhibition zone [8]: --
- diameter of growth-inhibition zone [9]: --
- diameter of growth-inhibition zone [10]: --
- diameter of growth-inhibition zone [11]: 9 mm
- diameter of growth-inhibition zone [12]: --
- diameter of growth-inhibition zone [13]: 4 mm
- diameter of growth-inhibition zone [14]: --
- diameter of growth-inhibition zone [15]: --
- diameter of growth-inhibition zone [16]: --
- diameter of growth-inhibition zone [17]: --
- diameter of growth-inhibition zone [18]: --
- diameter of growth-inhibition zone [19]: --
- diameter of growth-inhibition zone [20]: --
- diameter of growth-inhibition zone [21]: --
- diameter of growth-inhibition zone [22]: --
- diameter of growth-inhibition zone [23]: --
- diameter of growth-inhibition zone [24]: --
- diameter of growth-inhibition zone [25]: --
- diameter of growth-inhibition zone [26]: --
- diameter of growth-inhibition zone [27]: --
- diameter of growth-inhibition zone [28]: --
- diameter of growth-inhibition zone [29]: --
- diameter of growth-inhibition zone [30]: --
- diameter of growth-inhibition zone [31]: --
- diameter of growth-inhibition zone [32]: --
- diameter of growth-inhibition zone [33]: --
- diameter of growth-inhibition zone [34]: --
- diameter of growth-inhibition zone [35]: 4 mm
- diameter of growth-inhibition zone [36]: --
- diameter of growth-inhibition zone [37]: --
